Reference: PubChem BioAssay AID1845195 (Molecular Pharmacology Branch, DTP, NCI, 2023)

Test system: 156681-154-R-J1 tumor spheroid viability
Assay: Anticancer human tumor 156681-154-R-J1 patient-derived melanoma cell line growth inhibition
Conditions: spheroids with HUVEC and MSC; for viability, T/C: stronger effect = lower value
From the text: Multicellular complex tumor spheroid response to DNA repair inhibitors in combination with DNA-damaging drugs
This study explores the anticancer activities of DNA-damaging drugs and inhibitors of DNA damage repair, both as single agents and in combinations. Complex tumor spheroids comprised of malignant cells, endothelial cells and mesenchymal stem cells served as an in vitro model for human solid tumors. This model system incorporates physiologically relevant features and patient-derived or established malignant cell lines with clinically relevant genetic alterations from many tumor types. Twenty-six patient-derived or established malignant cell lines were evaluated representing sarcoma, melanoma, small cell lung cancer (SCLC), non-small cell lung cancer (NSCLC), as well as bladder, ovarian and pancreatic cancers. The concentration ranges selected for each drug and investigational agent were based upon clinically achievable concentrations if the clinical Cmax of the agent was known.
Compounds. The drugs and compounds olaparib (NSC753686), talazoparib (NSC767125), berzosertib (NSC777718), elimusertib (NSC800525), nedisertib (NSC802822), VX-984 (NSC792969), AZD-1390 (NSC803789), temozolomide (NSC362856), topotecan (NSC609699), trabectedin (NSC813783), staurosporine (NSC755774), and gemcitabine (NSC613327) were obtained from the National Cancer Institute (NCI) Developmental Therapeutics Program Chemical Repository. The FDA-approved anticancer drug set is available from the Developmental Therapeutics Program at https://dtp.cancer.gov/organization/dscb/obtaining/available_plates.htm. […] The stock solutions were prepared in dimethyl sulfoxide (DMSO, Sigma-Aldrich, St. Louis, MO, cat. D2650) at 400-fold the tested concentration and stored at -70 degrees C. Prior to their use, the stock solutions were diluted in fresh medium and the final DMSO concentration in the assay was 0.25% (v/v). All drugs and investigational agents were tested over a range starting from a high concentration at or near the clinical Cmax and decreasing in half-log increments. If the clinical Cmax for an agent had not been determined, the highest concentration tested was 10 microM.
Cell Lines. The patient-derived cancer cell (PDC) lines: 156681-154-R-J1-PDC, 283228-195-R-J1-PDC, 287954-098-R-J1-PDC, 292921-168-R-J2-PDC, 349418-098-R-PDC, 425362-245-T-J1-PDC, 556581-035-R-J1-PDC, and BL0293-F563-PDC were received from the NCI Patient-Derived Models Repository (PDMR, https://pdmr.cancer.gov). The established cell lines HS-SY-2 (RRID:CVCL_8719), MPNST, and SYO-1 (RRID:CVCL_7146) were obtained from the Sloan Kettering Institute. The alveolar soft parts sarcoma cell line ASPS-1 (RRID:CVCL_S738) was established at the NCI and grown from internal seed stocks. The following established cell lines were purchased from the American Type Culture Collection (ATCC, Manassas, VA): G-401 (ATCC, cat. CRL-1441, RRID:CVCL_0270), SW982 (ATCC, cat. HTB-93, RRID:CVCL_1734), VA-ES-BJ (ATCC, cat. CRL-2138, RRID:CVCL_1785), NCI-H719 (ATCC, cat. CRL-5837, RRID:CVCL_1582), NCI-H196 (ATCC, cat. CRL-5823, RRID:CVCL_1509), NCI-H841 (ATCC, cat. CRL-5845, RRID:CVCL_1595), NCI-H1618 (ATCC, cat. CRL-5879, RRID:CVCL_1480), NCI-H1876 (ATCC, cat. CRL-5902, RRID:CVCL_1503), DMS 114 (ATCC, cat. CRL-2066; RRID:CVCL_1174), NCI-H211 (ATCC, cat. CRL-5824; RRID:CVCL_1529), and SW 1271 (ATCC, cat. CRL-2177, RRID:CVCL_1716). The small cell lung cancer cell line COR-L88 was purchased from Sigma-Aldrich (cat. 92031917-1VL, RRID:CVCL_1141). The non-small cell lung cancer cell lines NCI-H226 (RRID:CVCL_1544) and NCI-H322M (RRID:CVCL_1557) were established at the NCI and grown from internal seed stocks. Pooled donor human umbilical vein endothelial cells (HUVEC, Lonza, cat. CC-2519) and human mesenchymal stem cells (hMSC, Lonza, cat. PT-2501) were purchased from Lonza (Walkersville, MD).
Cell Culture. All cells were maintained in an incubator at 37 degrees C and 5% CO2 with 95% humidity. […]
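Further: spheroids exposed to compounds for 7 days before readout.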
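Wherever viability, T/C is given: percent of vehicle control viability where 100% = DMSO-treated spheroids.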

O=C(c1cc(Cc2n[nH]c(=O)c3ccccc23)ccc1F)N1CCN(C(=O)C2CC2)CC1 + CC[C@@]1(O)C(=O)OCc2c1cc1n(c2=O)Cc2cc3c(CN(C)C)c(O)ccc3nc2-1
IC50 (curve of first compound, second compound 0.003 µM): 21.3 µM
IC50 (curve of first compound, second compound 0.00949 µM): 14.8 µM
IC50 (curve of first compound, second compound 0.03 µM): < 0.0949 µM
IC50 (curve of first compound, second compound 0.0949 µM): < 0.0949 µM
IC50 (curve of first compound, second compound 0.3 µM): < 0.0949 µM
viability, T/C (second compound 0.003 µM, first compound 0.0949 µM): 103%
viability, T/C (second compound 0.003 µM, first compound 0.3 µM): 80.6%
viability, T/C (second compound 0.003 µM, first compound 0.949 µM): 74.2%
viability, T/C (second compound 0.003 µM, first compound 3 µM): 74.5%
viability, T/C (second compound 0.003 µM, first compound 9.49 µM): 63%
viability, T/C (second compound 0.003 µM, first compound 30 µM): 42.1%
viability, T/C (second compound 0.00949 µM, first compound 0.0949 µM): 59.1%
viability, T/C (second compound 0.00949 µM, first compound 0.3 µM): 64.2%
viability, T/C (second compound 0.00949 µM, first compound 0.949 µM): 76.7%
viability, T/C (second compound 0.00949 µM, first compound 3 µM): 62.6%
viability, T/C (second compound 0.00949 µM, first compound 9.49 µM): 62%
viability, T/C (second compound 0.00949 µM, first compound 30 µM): 31.2%
viability, T/C (second compound 0.03 µM, first compound 0.0949 µM): 38.4%
viability, T/C (second compound 0.03 µM, first compound 0.3 µM): 41.1%
viability, T/C (second compound 0.03 µM, first compound 0.949 µM): 36.7%
viability, T/C (second compound 0.03 µM, first compound 3 µM): 29.8%
viability, T/C (second compound 0.03 µM, first compound 9.49 µM): 15.3%
viability, T/C (second compound 0.03 µM, first compound 30 µM): 15.5%
viability, T/C (second compound 0.0949 µM, first compound 0.0949 µM): 33.5%
viability, T/C (second compound 0.0949 µM, first compound 0.3 µM): 35.5%
viability, T/C (second compound 0.0949 µM, first compound 0.949 µM): 33%
viability, T/C (second compound 0.0949 µM, first compound 3 µM): 25.7%
viability, T/C (second compound 0.0949 µM, first compound 9.49 µM): 21.7%
viability, T/C (second compound 0.0949 µM, first compound 30 µM): 9.48%
viability, T/C (second compound 0.3 µM, first compound 0.0949 µM): 46%
viability, T/C (second compound 0.3 µM, first compound 0.3 µM): 46.4%
viability, T/C (second compound 0.3 µM, first compound 0.949 µM): 46.6%
viability, T/C (second compound 0.3 µM, first compound 3 µM): 46.2%
viability, T/C (second compound 0.3 µM, first compound 9.49 µM): 42.3%
viability, T/C (second compound 0.3 µM, first compound 30 µM): 13.3%

CC[C@@]1(O)C(=O)OCc2c1cc1n(c2=O)Cc2cc3c(CN(C)C)c(O)ccc3nc2-1
viability, T/C (compound 0.00949 µM): 85.4% [middle of 10 runs]
viability, T/C (compound 0.0949 µM): 22.1% [middle of 10 runs]
viability, T/C (compound 0.3 µM): 31.3% [middle of 10 runs]
IC50 (compound alone, run of 10/17/2019): 39.5 nM [middle of 5 runs]
IC50 (compound alone, run of 10/25/2019): 45.2 nM [middle of 5 runs]
